Entries after “also recorded” stand apart in the source; their conditions may differ.
System: human reference serum 007sp
Experiment: Glycan array, antibody binding from human reference serum 007sp with CPS/CWPS competition
Details: glycan array competition experiment, serum 007sp (FIG. 5, FIG. 6), 24* compared with 16*
Experimental: Pyruvated SP4 tetrasaccharide 24* was dissolved at 10 mM in water and diluted to 100 μM and 50 μM in coupling buffer (50 mM sodium phosphate, pH 8.5). Each concentration was spotted in duplicates to CodeLink activated glass slides (Surmodics) alongside a number of related structures and native polysaccharides (see FIG. 4 for printing pattern) using a Scienion S3 microarray printer at 65% relative humidity. The slides were incubated in a humidity saturated chamber overnight. They were washed twice with water and quenched by incubation with 100 mM ethanolamine, 50 mM sodium phosphate pH 9 for one hour at room temperature. They were washed again twice, dried by centrifugation and stored at 4° C. until use.
Slides were blocked by incubation with 1% BSA-PBS at room temperature, washed twice with PBS and dried by centrifugation. A 64 well incubation gasket was attached to the glass slides.
Sera (rabbit SP4 typing serum (SSI Diagnostica, Denmark) or human reference serum 007sp (Clin. Vaccine Immunol. 2011 18 (10), 1728)) were diluted in 1% BSA-PBS containing no competitors or native SP4 CPS (capsular polysaccharide) or CWPS (S. pneumoniae cell wall polysaccharide) as competitors. […] It was dried by centrifugation and the fluorescence was read out using s GenePix 4300a fluorescence reader.

**Q.** CC(=O)N[C@@H]1[C@H](O[C@@H]2[C@H](O)[C@H](C)O[C@@H](O[C@H]3[C@@H](O)[C@@H](CO)O[C@H](O[C@@H]4[C@H](O)[C@@H](O)[C@@H](OCCCCCN)O[C@@H]4CO)[C@@H]3NC(C)=O)[C@H]2NC(C)=O)O[C@H](CO)[C@@H](O)[C@@H]1O [compound 16*, N-((2R,3S,4R,5S,6R)-2-(((2S,3S,4S,5R,6S)-3-acetamido-2-(((2R,3R,4R,5R,6R)-3-acetamido-2-(((2R,3R,4R,5R,6S)-6-((5-aminopentyl)oxy)-4,5-dihydroxy-2-(hydroxymethyl)tetrahydro-2H-pyran-3-yl)oxy)-5-hydroxy-6-(hydroxymethyl)tetrahydro-2H-pyran-4-yl)oxy)-5-hydroxy-6-methyltetrahydro-2H-pyran-4-yl)oxy)-4,5-dihydroxy-6-(hydroxymethyl)tetrahydro-2H-pyran-3-yl)acetamide] was tested. Which “inhibition (decline) of signal by native S. pneumoniae serotype 4 CPS” value did it give?
**A.** The value was “Compared to unpyruvated tetrasaccharide 16*, the signal for the pyruvated saccharide 24* can be inhibited far more efficiently; also recorded: much stronger for pyruvated tetrasaccharide 24* (spot B) compared with unpyruvated tetrasaccharide 16*”.
